# Measured values reported in patent US20100267561A1, “HERBICIDAL PYRIDAZINONE DERIVATIVES” (priority 2007, published 2010).
# Like-named read-outs stand apart in the source and are kept apart here.
# What was measured:
# Test in all cases: Test B pre-/postemergence plant response
# Format in all cases: in vivo
# [1] = test system: common (oilseed) sunflower (Helianthus annuus); details: Preemergence
# Summary of the method: (§1)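 Seeds were sown and sprayed preemergence, while plants at 2 to 18 cm (1- to 4-leaf stage) got postemergence sprays. Compounds were formulated in a non-phytotoxic solvent mixture with surfactant. After 13 to 15 days in a greenhouse, injury was rated visually against untreated controls, 0 (no effect) to 100 (complete control).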
# [2] = test system: downy bromegrass (Bromus tectorum); details: for Bromegrass, Downy plant response rating: 8 g ai/ha; for pest or weed control at 16 g/ha / pest or weed control at 31 g/ha / pest or weed control at 62 g/ha: Bromus tectorum, read-out: Plant response rating, Bromegrass, Downy; for pest or weed control at 16 g/ha: 16 g ai/ha; for pest or weed control at 31 g/ha: 31 g ai/ha; for pest or weed control at 62 g/ha: 62 g ai/ha
# Summary of the method: as §1
# [3] = test system: giant foxtail (Setaria faberii); details: for Foxtail, Giant plant response rating: 8 g ai/ha; for pest or weed control at 16 g/ha / pest or weed control at 31 g/ha / pest or weed control at 62 g/ha: Setaria faberi, read-out: Plant response rating, Foxtail, Giant; for pest or weed control at 16 g/ha: 16 g ai/ha; for pest or weed control at 31 g/ha: 31 g ai/ha; for pest or weed control at 62 g/ha: 62 g ai/ha
# Summary of the method: as §1
# [4] = test system: morningglory (Ipomoea coccinea); details: for Morningglory plant response rating: 8 g ai/ha; for pest or weed control at 16 g/ha / pest or weed control at 31 g/ha / pest or weed control at 62 g/ha: Ipomoea, read-out: Plant response rating, Morningglory; for pest or weed control at 16 g/ha: 16 g ai/ha; for pest or weed control at 31 g/ha: 31 g ai/ha; for pest or weed control at 62 g/ha: 62 g ai/ha
# Summary of the method: as §1
# wild oat (Avena fatua) = details: for pest or weed control at 16 g/ha / pest or weed control at 31 g/ha / pest or weed control at 62 g/ha: Avena fatua, read-out: Plant response rating, Oat, Wild; for pest or weed control at 16 g/ha: 16 g ai/ha; for pest or weed control at 31 g/ha: 31 g ai/ha; for pest or weed control at 62 g/ha: 62 g ai/ha
# Summary of the method: as §1
# [5] = test system: lambsquarters (Chenopodium album); details: for Lambsquarters plant response rating: 8 g ai/ha; for pest or weed control at 16 g/ha / pest or weed control at 31 g/ha / pest or weed control at 62 g/ha: Chenopodium album, read-out: Plant response rating, Lambsquarters; for pest or weed control at 16 g/ha: 16 g ai/ha; for pest or weed control at 31 g/ha: 31 g ai/ha; for pest or weed control at 62 g/ha: 62 g ai/ha
# Summary of the method: as §1
# [6] = test system: green foxtail (Setaria viridis); details: for Foxtail, Green plant response rating: 8 g ai/ha; for pest or weed control at 16 g/ha: 16 g ai/ha
# Summary of the method: as §1
# [7] = post-emergence, Postemergence, scale 0 to 100
# [8] = post-emergence, Postemergence, scale 0 to 100, 0 no effect, 100 complete control
# [9] = pre-emergence, Preemergence, scale 0 to 100 (0 no effect, 100 complete control)
# [10] = pre-emergence, Preemergence, 0 to 100 scale, 0 no effect, 100 complete control
# [11] = pre-emergence, Preemergence, scale 0 to 100
smiles,measurement,setting,value
"CCc1c(C)c(-c2ccc(Cl)cc2)nn1-c1c(O)cnn(C)c1=O [Compound 26, 4-[3-(4-chlorophenyl)-5-ethyl-4-methyl-1H-pyrazol-1-yl]-5-hydroxy-2-methyl-3(2H)-pyridazinone]",pest or weed control at 16 g/ha,"[1]; Helianthus annuus, pre-emergence, 16 g ai/ha, scale 0 to 100 (0 no effect, 100 complete control), read-out: Plant response rating, Sunflower",0%
same,pest or weed control at 31 g/ha,"[1]; Helianthus annuus, pre-emergence, 31 g ai/ha, 0 to 100 scale, 0 no effect, 100 complete control, read-out: Plant response rating, Sunflower",0%
same,pest or weed control at 62 g/ha,"[1]; Helianthus annuus, pre-emergence, 62 g ai/ha, scale 0 to 100, read-out: Plant response rating, Sunflower",0%
same,Sunflower plant response rating,"[1]; 8 g ai/ha, scale 0 to 100",0
same,"Bromegrass, Downy plant response rating","[2]; postemergence, 0-100 scale",0
same,pest or weed control at 16 g/ha,[2]; [7],10%
same,pest or weed control at 31 g/ha,[2]; [8],30%
same,pest or weed control at 62 g/ha,[2]; [8],60%
same,pest or weed control at 16 g/ha,[2]; [9],0%
same,pest or weed control at 31 g/ha,[2]; [10],10%
same,pest or weed control at 62 g/ha,[2]; [11],65%
same,"Bromegrass, Downy plant response rating","[2]; Preemergence, scale 0 to 100",0
same,"Foxtail, Giant plant response rating","[3]; postemergence, 0-100 scale",80
same,"Foxtail, Giant plant response rating","[3]; Preemergence, scale 0 to 100",65
same,pest or weed control at 16 g/ha,[3]; [7],95%
same,pest or weed control at 31 g/ha,[3]; [8],95%
same,pest or weed control at 62 g/ha,[3]; [8],100%
same,pest or weed control at 16 g/ha,[3]; [9],95%
same,pest or weed control at 31 g/ha,[3]; [10],100%
same,pest or weed control at 62 g/ha,[3]; [11],100%
same,Morningglory plant response rating,"[4]; postemergence, 0-100 scale",0
same,pest or weed control at 16 g/ha,[4]; [7],0%
same,pest or weed control at 31 g/ha,[4]; [8],0%
same,pest or weed control at 62 g/ha,[4]; [8],0%
same,pest or weed control at 16 g/ha,[4]; [9],0%
same,pest or weed control at 31 g/ha,[4]; [10],0%
same,pest or weed control at 62 g/ha,[4]; [11],0%
same,Morningglory plant response rating,"[4]; Preemergence, scale 0 to 100",0
same,"Oat, Wild plant response rating","wild oat (Avena fatua); 8 g ai/ha, postemergence, 0-100 scale",85
same,pest or weed control at 16 g/ha,wild oat (Avena fatua); [7],90%
same,pest or weed control at 31 g/ha,wild oat (Avena fatua); [8],90%
same,pest or weed control at 62 g/ha,wild oat (Avena fatua); [8],100%
same,pest or weed control at 16 g/ha,wild oat (Avena fatua); [9],80%
same,pest or weed control at 31 g/ha,wild oat (Avena fatua); [10],85%
same,pest or weed control at 62 g/ha,wild oat (Avena fatua); [11],85%
same,Lambsquarters plant response rating,"[5]; postemergence, 0-100 scale",0
same,pest or weed control at 16 g/ha,[5]; [7],0%
same,pest or weed control at 31 g/ha,[5]; [8],0%
same,pest or weed control at 62 g/ha,[5]; [8],0%
same,pest or weed control at 16 g/ha,[5]; [9],0%
same,pest or weed control at 31 g/ha,[5]; [10],0%
same,pest or weed control at 62 g/ha,[5]; [11],0%
same,Lambsquarters plant response rating,"[5]; Preemergence, scale 0 to 100",0
same,"Foxtail, Green plant response rating","[6]; postemergence, 0-100 scale",60
same,"Foxtail, Green plant response rating","[6]; Preemergence, scale 0 to 100",98
same,pest or weed control at 16 g/ha,"[6]; Setaria viridis, post-emergence, Postemergence, scale 0 to 100, read-out: Plant response rating, Foxtail, Green",80%
same,pest or weed control at 31 g/ha,"[6]; Setaria viridis, post-emergence, Postemergence, 31 g ai/ha, scale 0 to 100, 0 no effect, 100 complete control, read-out: Plant response rating, Foxtail, Green",80%
same,pest or weed control at 62 g/ha,"[6]; Setaria viridis, post-emergence, Postemergence, 62 g ai/ha, scale 0 to 100, 0 no effect, 100 complete control, read-out: Plant response rating, Foxtail, Green",98%
same,pest or weed control at 16 g/ha,"[6]; Setaria viridis, pre-emergence, Preemergence, scale 0 to 100 (0 no effect, 100 complete control), read-out: Plant response rating, Foxtail, Green",100%
